Reference: patent publication US9078907B2, “Immunoregulator compounds” (Universita Degli Studi Di Roma “Tor Vergata”, priority 2001, dated 2015)

Experiments:
Mycobacterium smegmatis = assay: Colony forming units of M. smegmatis in differentiated THP-1 cells; assay type: cell-based; conditions: THP-1 macrophage cell line, MOI 50:1, 5 μM, 1, 12 and 24 hours
Procedure: Human monocytic THP-1 leukemia line cells were used in this example as a model for macrophage response. In order to obtain macrophage phenotype, 5×10^5/ml THP-1 cells were induced to differentiate by 48 hours incubation in the presence of 20 ng/ml Phorbol Myristate Acetate (PMA). Differentiated THP-1 cells (dTHP-1) were then centrifuged three times and suspended in complete medium [RPMI 1640 (Gibco BRL) supplemented with 10% fetal bovine serum (Gibco BRL), 5 mM L-glutamine (Invitrogen), 1 mM sodium pyruvate (Gibco BRL) and non-essential amino acids (Euroclone)]. dTHP-1 were then infected for 3 hours with M. smegmatis at the multiplicity of infection of bacterium/cell 50:1. Following infection cells were washed three times with RPMI 1640 and incubated in complete medium at 37° C. for further 1, 12 and 24 hours in the presence or absence of sphingosine-1 phosphate used at the concentration of 5 μM.
In order to assess the role of macrophage PLD activity in sphingosine 1-phosphate induced mycobacterial growth control, following the infection the cells were cultured in the presence of various concentrations of ethanol (0.3%, 0.03%, 0.003%) or 10 nM calphostin C. […] Inhibiting activity of calphostin C is exploited by targeting PLD catalytic domain (Sciorra V. A., Hammond S. M., Morris A. J. Potent direct inhibition of mammalian phospholipase D isoenzymes by calphostin c. Biochemistry 2001; 40: 2640-46). Just after the infection and at the indicated time points, cells were 1) lysed using cold PBS containing 0.1% saponin (Sigma, MA, USA), ii) serially diluted in PBS containing 0.01% Tween-80 (Merck, Darmstadt, Germany) and iii) plated in triplicate in Middlebrook 7H10 medium (Becton Dickinson, MD, USA) supplemented with 10% OADC formulation (0.5 mg/ml oleic acid, 50 mg/ml albumin, 20 mg/ml dextrose, 0.04 mg/ml catalase and 8.5 mg/ml sodium chloride). M. smegmatis colonies were enumerated after incubation for 3 days at 37° C.

[1] = test system: MTB-FITC infected macrophages; assay: Phagolysosome maturation by flow cytometry of FITC-labelled MTB infected macrophages; assay type: cell-based, human; conditions: MTB-FITC MOI 1 for 3 hours, 5 μM S1P for 30 minutes; S1P non-treated 63.4%
Procedure: In some experiments MTB aliquots, after thawing at room temperature, centrifuged at 10000 rpm for 10 minutes, suspended in PBS and sonicated for 1-2 minutes, were labelled with fluorescein isothiocyanate (FITC) (Sigma). FITC, pre-suspended at 1 μg/ml concentration, was added to the bacterial suspension, which was incubated at 37° C. in the presence of 5% CO2 for about 90 minutes. At the end of the incubation the bacterial suspension was washed three times with centrifugation at 14000 rpm for 15 minutes and suspended in PBS at required concentration.
By virtue of extreme sensitivity of fluorescein isothiocyanate (FITC) to acid pHs this molecule was used to monitor the phagosome acidity and have therefore information about maturation stage of phagolysosome. To this aim, bacteria were labelled with fluorescein isothiocyanate (FITC) as above described. Infection was carried out using FITC labelled bacteria. Then, cells were washed after 3 hours and stimulated for 30 minutes with 5 μM sphingosine 1-phosphate and following 1.5% paraformaldehyde (PFA) fixated and finally monitored by flow cytofluorometry.
In order to evaluate the effect of S1P on a specific antimicrobial activity as the maturation of phagolysosome, the infection with FITC-labelled MTB was carried out and the fluorescence values of FITC-MTB were used as indicators of the phagolysosome maturation. […]

[2] = test system: Mycobacterium tuberculosis; assay: Colony forming units of H37Rv M. tuberculosis in differentiated THP-1 cells; assay type: cell-based; conditions: THP-1 macrophage cell line, MOI 1:10 or 1:1, 5 μM, up to 5 or 7 days
Procedure: Human monocytic THP-1 leukemia line cells were used in this example as a model for macrophage response. In order to obtain macrophage phenotype, 5×10^5/ml THP-1 cells were induced to differentiate by 48 hours incubation in the presence of 20 ng/ml Phorbol Myristate Acetate (PMA). Differentiated THP-1 cells (dTHP-1) were then centrifuged three times and suspended in complete medium [RPMI 1640 (Gibco BRL) supplemented with 10% fetal bovine serum, 5 mM L-glutamine) (Invitrogen), 1 mM sodium pyruvate (Gibco BRL) and non-essential amino acids (Euroclone), 5 μg/ml gentamicin (Invitrogen)]. dTHP-1 were then infected for 3 hours with H37Rv M. tuberculosis at the multiplicity of infection of 1:10 (FIG. 8A) or 1:1 (FIG. 8B) bacterium/cell. After infection cells were washed three times with RPMI 1640 and incubated in complete medium for further 1, 2 and 5 days (FIG. 8A) or 1 and 7 days (FIG. 8B) in the presence or absence of sphingosine 1-phosphate used at the concentration of 5 μM. […]

With CCCCCCCCCCCCC/C=C/[C@@H](O)[C@@H](N)COP(=O)(O)O [S1P, D-erythro-sphingosine 1-phosphate] as the compound, how does the “intracellular replication of Mycobacterium smegmatis (CFU)” value (Mycobacterium smegmatis) read?
The value was “inhibits”.

What about the “% of fluorescent macrophages (FITC-MTB fluorescence)” value [1] of the same compound?
Its value is 38.9%.

And the “intracellular replication of Mycobacterium tuberculosis (CFU)” value [2]?
Its value is “inhibits”.
